Results taken from patent publication US20200216432A1, “SULFONAMIDE DERIVATIVES AS STAT3 INHIBITORS FOR THE TREATMENT OF PROLIFERATIVE DISEASES” (King's College London, priority 2017, published 2020).
Entries after “also recorded” stand apart in the source; their conditions may differ.

Tests used:
[1] = molecular target: unphosphorylated STAT3 monomer (uSTAT3) SH2 domain (Homo sapiens, UniProt P40763); experiment: Fluorescence polarisation assay for the inhibition of STAT3 dimerisation; assay type: binding; conditions: 350 nM uSTAT3, 10 nM FAM-pYLPQTV, 100 μM ligand; average of triplicate
unphosphorylated STAT3 monomer (uSTAT3) SH2 domain, sequence (P40763 whole entry, the tested form may be a part): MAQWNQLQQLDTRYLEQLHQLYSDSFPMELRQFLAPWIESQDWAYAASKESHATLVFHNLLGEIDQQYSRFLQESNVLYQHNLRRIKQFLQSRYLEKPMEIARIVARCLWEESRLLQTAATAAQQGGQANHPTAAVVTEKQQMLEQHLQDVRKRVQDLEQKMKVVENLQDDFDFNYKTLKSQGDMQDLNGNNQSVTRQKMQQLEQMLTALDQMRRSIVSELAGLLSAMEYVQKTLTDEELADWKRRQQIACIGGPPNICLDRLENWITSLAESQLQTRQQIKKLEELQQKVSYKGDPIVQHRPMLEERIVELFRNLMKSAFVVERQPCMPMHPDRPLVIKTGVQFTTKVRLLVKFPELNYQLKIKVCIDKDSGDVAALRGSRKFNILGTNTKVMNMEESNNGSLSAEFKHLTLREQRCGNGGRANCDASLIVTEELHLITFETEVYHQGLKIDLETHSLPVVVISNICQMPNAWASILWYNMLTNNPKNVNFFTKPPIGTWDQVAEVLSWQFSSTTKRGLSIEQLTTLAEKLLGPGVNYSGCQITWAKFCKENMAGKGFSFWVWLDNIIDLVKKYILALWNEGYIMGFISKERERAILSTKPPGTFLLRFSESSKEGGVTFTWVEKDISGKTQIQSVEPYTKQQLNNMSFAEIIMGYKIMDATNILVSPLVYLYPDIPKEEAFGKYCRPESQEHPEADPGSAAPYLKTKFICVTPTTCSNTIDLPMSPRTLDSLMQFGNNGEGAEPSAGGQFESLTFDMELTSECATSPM
Excerpt: Fluorescence Polarisation Assay for the Inhibition of STAT3 Dimerisation
The compounds were subjected to an in vitro fluorescent polarisation (FP)-based primary PPI binding screen to assess their ability to inhibit STAT3 dimerisation by interacting with the SH2 domain. In this FP assay, the unphosphorylated STAT3 monomer (uSTAT3) and a surrogate peptide FAM-pYLPQTV were used to form a ‘pseudo-dimer’. The assay is based on the concept that the compounds were expected to displace the surrogate peptide from the uSTAT3 resulting in a fluorescent read out.
Specifically, for the FP assay, a black (CORNING™) 96 well plate was thoroughly washed with distilled water and allowed to dry. A 100 nM FAM-pYLPQTV working solution was prepared from 10 μM FAM-pYLPQTV stock solution (in DMSO) using PBS pH 7.4 Buffer. 10 μl FAM-pYLPQTV was added to 350 nM uSTAT3 protein, the final concentration of protein in each well, in 90 μl PBS buffer pH 7.4. The MP value of the surrogate dimer complex was measured using a fluorescent plate reader (Envision™, Perkin Elmer™, USA), which provided the base MP value. The inhibitor solution was then added to the well and the assay plate was placed on a shaker for 5 minutes. The MP value for each well was then measured again. A shift in fluorescent values was observed due to displacement of the fluorescently-labelled surrogate peptide by the inhibitors, and the average inhibition for each inhibitor could be calculated as described below:
Base MP value (X) for each well=MP value of Protein and Probe (350 nm STAT3+10 nM FAM-pYLPQTV)−MP value of free FAM-pYLPQTV
Inhibitor MP value (Y) for each well=MP value of Protein+Probe+Inhibitor (350 nm uSTAT3+10 nM FAM-pYLPQTV+2 μL Inhibitor)−MP value of free FAM-pYLPQTV with 2 μL DMSO
% inhibition by any ligand/peptide=(X−Y)/X*100
For comparison purpose, the % inhibition produced by 100 μM pYLKTKF was considered to be 100%, and the inhibition produced by different ligands was reported as relative to 100 μM pYLKTKF.
% Inhibition produced by 100 μM pYLKTKF=A
% Inhibition produced by 100 μM Ligand=B
Relative inhibition (%)=B/A*100
The experiment was carried out in triplicate, and average values were taken as the measure of PPI inhibition.

[2] = tested on: A4 (STAT3-null) cancer cell line; experiment: MTT cell viability assay, A4; assay type: cell-based
Excerpt: (§1) MTT Cell viability assay with both MDA-MB-231 breast (STAT3-dependent) and A4 (STAT3-null) cancer cell lines.
(§2) After observing significant STAT3 dimerisation inhibitory activity in the preliminary FP assay, the target ligand and related fragments were progressed to an MTT cytotoxicity assay to evaluate in a STAT3-dependent tumour cell line (MDA MB 231, breast cancer) and a STAT3 null A4 cell line. It was anticipated that the compounds would show selective toxicity towards the STAT3-dependent MDA MB 231 cell line and would have lost activity in the STAT3 null A4 cell line if the mechanism of action was STAT3-mediated.
(§3) For each cell line, a total of 10,000 cells were seeded for 24 hours before addition of the inhibitors. The cells were grown in normal cell culture conditions at 37° C. under a 5% CO2 humidified atmosphere using an appropriate medium. The cell count was adjusted to 10^5 cells/ml, and 5,000-20,000 cells were added per well depending on the cell line. The cells were then incubated for 24 hours, and 1 μl aliquots of the inhibitors were added to the wells in triplicate. […] Absorbance was quantified by spectrophotometry at A=570 nm (Envision™ Plate Reader, PerkinElmer™, USA). IC50 values were calculated by a dose-response analysis using the Prism GraphPad Prism® software package.

[3] = tested on: STAT3 and STAT3-dependent genes; experiment: RT-PCR expression of STAT3 and STAT3-dependent genes in LPS-stimulated MDA-MB-231 cells; assay type: cell-based, human; conditions: 25 μM, 8 hours, MDA-MB-231 stimulated with 500 μg/mL LPS
Method: Effect of Compounds of the Invention on Expression of STAT3 and STAT3-Dependent Genes.
To probe the STAT3-specific cytotoxicity of the mature ligands, the mRNA expression profile of STAT3 and some STAT3 target genes (i.e., bcl-2, cyclin D1, and fascin) were compared to the reference gene GAPDH using a RT-PCR assay. Initially, the MDA-MB-231 cells were stimulated with 500 μg/mL LPS for 24 hours at 37° C. Following this, the compounds were added at 25 μM to the cells and incubated for another 8 hours at 37° C. Finally, PCR was used to determine changes in the gene expression profiles between stimulated-untreated and stimulated-treated cells.

[4] = tested on: MDA-MB-231 breast (STAT3-dependent) cancer cell line; experiment: MTT cell viability assay, MDA-MB-231; assay type: cell-based, human; conditions: for Selectivity ratio: STAT3-null A4 versus STAT3-dependent MDA-MB-231
Excerpt: as §1, §2, §3

MDA MB 231 tumours = experiment: Human tumour xenograft study; assay type: in vivo, SCID Hairless Outbred (SHO) mice
Method: In Vivo Evaluation of Compound 6 in a Human Tumour Xenograft Study
Therefore, it was decided to carry out a preliminary in vivo efficacy study in mice to evaluate the ability of the molecule to reduce the tumour volume in MDA MB 231 tumour bearing mice. The in vivo tumour xenograft study was carried out in SCID Hairless Outbred (SHO) mice, using an intravenous (IV) dosing regimen.
(§4) MDA-MB231 cells were mixed with matrigel (Geltrex, Gibco) before implantation into mice. For tumour generation, 5 million cells in a 50% matrigel mixture were inoculated subcutaneously on both flanks of 8 weeks old SCID Hairless Outbred (SHO) mice purchased from Charles River (Germany). […] The injections were repeated on day 3 and day 5. The sizes of the tumours were regularly measured using a caliper every 2 days. The tumour size of the treated mice was compared with that of the control group (7 untreated mice).

[5] = General toxicity and weight of treated xenograft mice; assay type: in vivo
Excerpt: as §4
The days of dosing are indicated by vertical dashed lines.

STAT3 [6] = experiment: STAT3 dimerization inhibition (unpublished results); conditions: applicants' unpublished results
Excerpt: herein designated RH-06, was identified as being a novel small molecule inhibitor.

STAT3 [7] = conditions: following IL-6 stimulation; cited from earlier work
STAT3 dependent cells = STAT3 dependent cells as compared to STAT3-null cells; cited from earlier work
[8] = MTT, 48 hours exposure (table title)
[9] = 0.5 mg/Kg IV on days 1, 3 and 5
[10] = Homo sapiens, MDA-MB-231, 48 h, MTT, 48 hours exposure (table title)

| Compound | inhibition at 100 µM [1] | IC50 ([2]; exposure (table title)) | IC50 [4, 10] | Bcl-2 mRNA expression (RT-PCR) [3] | STAT3 mRNA expression (RT-PCR) [3] | cyclin D1 mRNA expression (RT-PCR) [3] | fascin mRNA expression (RT-PCR) [3] | house-keeping gene GAPDH mRNA expression (RT-PCR) [3] | STAT1 mRNA expression (RT-PCR) [3] | Selectivity ratio [4] | also measured |
| --- | --- | --- | --- | --- | --- | --- | --- | --- | --- | --- | --- |
| COC(=O)c1ccc(N(C)S(=O)(=O)c2cc(C(=O)NCc3ccc(CN4CCCCC4)cc3)sc2-c2ccc(N3CCN(C)CC3)nc2)cc1 [Compound 3, methyl 4-((N-methyl-2-(6-(4-methylpiperazin-1-yl)pyridin-3-yl)-5-((4-(piperidin-1-ylmethyl)benzyl)carbamoyl)thiophene)-3-sulfonamido)benzoate] | > 50% | 65.1 µM | – | down-regulated | notable downregulation | down-regulated | down-regulated | without showing any effect | – | – | – |
| COC(=O)c1ccc(N(C)S(=O)(=O)c2cc(C(=O)NCc3ccc(CN4CCCCC4)cc3)sc2-c2ccc(C(=O)N3CCOCC3)cc2)cc1 [Compound 4, methyl 4-((N-methyl-2-(4-(morpholine-4-carbonyl)phenyl)-5-((4-(piperidin-1-ylmethyl)benzyl)carbamoyl)thiophene)-3-sulfonamido)benzoate] | > 50% | 77.4 µM | – | more pronounced | notable downregulation | relatively low compared to 3 | relatively low compared to 3 | without showing any effect | did not downregulate | – | – |
| COC(=O)c1ccc(N(C)S(=O)(=O)c2cc(C(=O)NCc3ccc(CN4CCCCC4)cc3)sc2-c2ccnc(N3CCNCC3)c2)cc1 [Compound 6, methyl 4-((N-methyl-2-(2-(piperazin-1-yl)pyridin-4-yl)-5-((4-(piperidin-1-ylmethyl)benzyl)carbamoyl)thiophene)-3-sulfonamido)benzoate] | > 50% | 73.2 µM | – | very weak expression | Almost no expression | Almost no expression | Almost no expression | without showing any effect | without showing any effect | – | IC50 (MDA-MB-231) [4, 8]: sub-micromolar; tumour volume compared to the control group (MDA MB 231 tumours; 0.5 mg/Kg IV (tail vein) on days 1, 3 and 5): significant reduction; also recorded: remained low and near the baseline; tumour volume after dosing was stopped (MDA MB 231 tumours; after dosing stopped on day 5, 0.5 mg/Kg IV): no significant increase in tumour volume; organ changes after sacrifice [5, 9]: no organ changes were observed; signs of toxicity [5, 9]: did not show any signs of toxicity; weight of the treated mice [5, 9]: initially lost some weight post-treatment, but regained the weight after 14 days; survival of treated mice ([5]; SCID Hairless Outbred (SHO), mouse, in vivo): ≥ 21 days |
| COC(=O)c1ccc(N(C)S(=O)(=O)c2cc(C(=O)Nc3ccc(OCCN4CCOCC4)cc3)sc2-c2ccc(N3CCCCC3)cc2)cc1 [Compound 10, methyl 4-((N-methyl-5-((4-(2-morpholinoethoxy)phenyl)carbamoyl)-2-(4-(piperidin-1-yl)phenyl)thiophene)-3-sulfonamido)benzoate] | > 50% | 67.5 µM | – | very strong down-regulation | significantly downregulated | marked | marked | did not show any effect | did not show any effect | – | – |
| COC(=O)c1ccc(N(C)S(=O)(=O)c2cc(C(=O)Nc3ccc(N4CCN(C(=O)c5cc6ccccc6o5)CC4)cc3)sc2Br)cc1 [Compound 39, methyl 4-((5-((4-(4-(benzofuran-2-carbonyl)piperazin-1-yl)phenyl)carbamoyl)-2-bromo-N-methylthiophene)-3-sulfonamido)benzoate] | – | – | – | – | – | – | – | – | – | – | % Inhibition [1]: 36.44%; IC50 [4, 8]: 4.8 µM; IC50 ([2]; 48 hours exposure (table title)): 43.2 µM |

Now from value to compound, other results behind:

| inhibition at 100 µM [1] | IC50 ([2]; exposure (table title)) | IC50 [4, 10] | Compound | Bcl-2 mRNA expression (RT-PCR) [3] | STAT3 mRNA expression (RT-PCR) [3] | cyclin D1 mRNA expression (RT-PCR) [3] | fascin mRNA expression (RT-PCR) [3] | house-keeping gene GAPDH mRNA expression (RT-PCR) [3] | STAT1 mRNA expression (RT-PCR) [3] | Selectivity ratio [4] | also measured |
| --- | --- | --- | --- | --- | --- | --- | --- | --- | --- | --- | --- |
| 30.2% | 55.6 µM | 5.64 µM | COC(=O)c1ccc(N(C)S(=O)(=O)c2cc(C(=O)NCc3ccc(CN4CCCC4)cc3)sc2Br)cc1 [Compound 37, methyl 4-((2-bromo-N-methyl-5-((4-(pyrrolidin-1-ylmethyl)benzyl)carbamoyl)thiophene)-3-sulfonamido)benzoate] | – | – | – | – | – | – | 9.85 | – |
| 29.2% | 54.1 µM | 11.6 µM | COC(=O)c1ccc(N(C)S(=O)(=O)c2cc(C(=O)Nc3cccc(-c4csc(C)n4)c3)sc2Br)cc1 [Compound 38, methyl 4-((2-bromo-N-methyl-5-((3-(2-methylthiazol-4-yl)phenyl)carbamoyl)thiophene)-3-sulfonamido)benzoate] | – | – | – | – | – | – | 4.67 | – |
| 24.2% | – | – | Cc1ccc(-c2sc(C(=O)NCc3cccs3)cc2S(=O)(=O)N2CCCC2)cc1 [RH-06] | – | – | – | – | – | – | – | STAT3 dimerization (STAT3 [6]): inhibits STAT3 dimerization; phosphorylation of STAT3 (STAT3 [7]): selectively inhibited phosphorylation of STAT3; cytostatic effect (STAT3 dependent cells): selectively cytostatic |
| 32.3% | 65.5 µM | 18.7 µM | C[C@@H]1CC(=O)c2c(ccc3c2C(=O)c2cccc(O)c2C3=O)C1 [STA-21, reference compound] | – | – | – | – | – | – | 3.5 | – |
